These are literature values, as cited in patent US20100272800A1 (SANOVEL ILAC SANAYI VE TICARET ANONIM SIRKETI, priority 2009, published 2010).

Regarding `Cc1cc2c(s1)Nc1ccccc1N=C2N1CCN(C)CC1` [Olanzapine, 2-methyl-4-(4-methyl-1-piperazinyl)-10H-thieno[2,3-b][1,5] benzodiazepine], the solubility in water entry is “practically insoluble in water”.
